Key:
[1] = tested on: MUCL1; assay: Upregulation of gene expression and/or activity, 1% naringenin: MUCL1
Source text: (§1) In certain embodiments, administration of a composition comprising naringenin leads to up-regulation of LCE5A, KRT77, ALOXE3, KRT1, HPGD, MUCL1, CASP14, WFDC12, KRT10, DNASE1L2, IL37, SERPINB12, HAL, UPK1A, CALML5, LCE2B, and/or MIR205. In certain embodiments, administration of a composition comprising naringenin leads to down-regulation of CCL11, CSF2, IL23A, IL11, BMP6, IL13RA2, C2CD4A, NR4A2, C2CD4B, FGF2, FARP4, GDF15, THBS1, HSPA1A, PTGS2, and/or DKK1. Tables 10 and 11 provide data for upregulation and downregulation respectively of certain genes after administration of compositions comprising 1% naringenin.

[2] = tested on: WFDC12; assay: Upregulation of gene expression and/or activity, 1% naringenin: WFDC12
Source text: as §1

[3] = tested on: CALML5; assay: Upregulation of gene expression and/or activity, 1% naringenin: CALML5
Source text: as §1
Calmodulin like 5 (CALML5) plays a role in cell growth. The enzyme encoded by CALML5 is a novel calcium binding protein expressed in the epidermis and related to the calmodulin family of calcium binding proteins. It plays a key role in cell growth and proliferation, including playing a key role in terminal differentiation of keratinocytes. In certain embodiments, administration of compositions comprising naringenin leads to upregulation of CALML5, which leads to increase cell proliferation, including the cells in the skin and the underlying tissues. […] In certain embodiments, the administration of composition comprising naringenin results in at least about 2 to about 10-fold upregulation of expression and/or activity of CALML5. […]

[4] = tested on: CSF2; assay: Downregulation of gene expression and/or activity, 1% naringenin: CSF2
Source text: as §1
Granulocyte-macrophage colony-stimulating factor (CSF2) plays a role in inflammation and arthritis. In certain embodiments of the invention, downregulation of CSF2 leads to an anti-inflammatory activity and/or anti-arthritic activity. In certain embodiments, the administration of composition comprising naringenin results in at least about 10 to about 20-fold downregulation of expression and/or activity of CSF2. In certain embodiments, the administration of composition comprising naringenin results in at least about fifteen (15) fold downregulation of expression and/or activity of CSF2.

[5] = tested on: C2CD4B; assay: Downregulation of gene expression and/or activity, 1% naringenin: C2CD4B
Source text: as §1
C2 calcium dependent domain containing 4B (C2CD4B) plays a role in the inflammatory response. In certain embodiments, downregulation of C2CD4B results in reduction in inflammation. In certain embodiments, the administration of composition comprising naringenin results in at least about 5 to about 15-fold downregulation of expression and/or activity of C2CD4B. In certain embodiments, the administration of composition comprising naringenin results in at least about ten (10) fold downregulation of expression and/or activity of C2CD4B.

[6] = tested on: PTGS2; assay: Downregulation of gene expression and/or activity, 1% naringenin: PTGS2
Source text: as §1
Prostaglandin-endoperoxide synthase 2 (PTGS2) plays a role in the production of signaling molecules that are involved in the inflammatory response. For example, PTGS2 is involved in the conversion of arachidonic acid to prostaglandin H2, an important precursor of prostacyclin, which is expressed in inflammation. In certain embodiments, downregulation of PTGS2 leads to reduction in production of signaling molecules leading to inflammation. Thus, the downregulation of PTGS2 leads to reduced inflammation. In certain embodiments, the administration of composition comprising naringenin results in at least about 2 to about 10-fold downregulation of expression and/or activity of PTGS2. […]

[7] = tested on: DKK1; assay: Downregulation of gene expression and/or activity, 1% naringenin: DKK1; details: negative = downregulation
Source text: as §1

[8] = ABTS antioxidant assay (aqueous); assay type: biochemical; details: for % Radical Inhibition: aqueous
Source text: The 2,2′-Azinobis [3-ethylbenzothiazoline-6-sulfonic acid]-diammonium salt (ABTS) antioxidant assay is designed to evaluate the antioxidant activity of compositions comprising naringenin in an aqueous medium. ABTS+ solution is generated as a free radical and used to measure relative ability of a compound to scavenge free radicals. Reduction of the absorbance at 734 nm was standardized to solvent control as an indication of ABTS+ scavenging.

[9] = DPPH antioxidant activity assay (organic medium); assay type: biochemical; details: for % Radical Inhibition: organic medium
Source text: The 2,2-diphenyl-1-picrylhydrazyl (DPPH) antioxidant assay is designed to evaluate the antioxidant activity of compositions comprising naringenin in an organic medium.
2,2-diphenyl-1-picrylhydrazyl (DPPH) is a stable free radical used to evaluate free radical scavenging capacity of a material. In the presence of an antioxidant DPPH is reduced, resulting in the formation of a colorless solution. Reduction of absorbance at 517 nm is standardized to solvent control as an indication of DPPH scavenging.

[10] = tested on: TNFα; assay: TNFα concentration in stimulated (stressed) normal human epidermal keratinocytes (ELISA); assay type: cell-based; details: for TNFα concentration: LPS + Poly:IC stressed NHEK, stimulated control 202.6
Source text: Normal Human Epidermal Keratinocytes (NHEK) were stressed with a cocktail of lipopolysaccharide (LPS) and Polyinosinic-polycytidylic acid sodium salt (Poly:IC), external aggressors capable of inducing an inflammatory response. Stressed cells were subsequently treated with test articles and reduction in inflammatory markers was measuring by ELISA. Tables 19 and 20, provided below, discloses data for TNFα and IL-6 concentrations, respectively, in stressed normal human epidermal keratinocytes.

[11] = tested on: superoxide dismutase; details: consumed orally; cited from earlier work
[12] = tested on: psoriasis models; details: cited from earlier work

With `O=C1C[C@@H](c2ccc(O)cc2)Oc2cc(O)cc(O)c21` [naringenin, (2S)-5,7-Dihydroxy-2-(4-hydroxyphenyl)-2,3-dihydro-4H-1-benzopyran-4-one] the “Fold-increase in expression and/or activity of MUCL1” value [1] was 11 fold, the “Fold-increase in expression and/or activity of WFDC12” value [2] was 11 fold and the “Fold-increase in expression and/or activity of CALML5” value [3] was about 7 fold. The “fold downregulation in expression and/or activity of CSF2” value [4] was about 18 fold, the “fold downregulation in expression and/or activity of C2CD4B” value [5] was about 8 fold and the “Fold-increase (downregulation table) C2CD4B” value ([5]; negative = downregulation) was −8 fold. For the same compound, the “fold downregulation in expression and/or activity of PTGS2” value [6] was about 6 fold, the “Fold-increase (downregulation table) PTGS2” value ([6]; negative = downregulation) was −6 fold and the “Fold-increase (downregulation table) DKK1” value [7] was −5 fold. For the same compound, the “% Radical Inhibition” value ([8]; 0.0045 % w/w naringenin) was 47.50%, the “% Radical Inhibition” value ([8]; 0.009 % w/w naringenin) was 55.45% and the “% Radical Inhibition” value ([8]; 0.018 % w/w naringenin) was 65.39%. The “IC50 antioxidant activity (ABTS)” value ([8]; aqueous solvent system, calculated) was 0.0058 % w/w, the “Lowest concentration with antioxidant activity” value ([8]; aqueous systems) was at most 0.001 % w/w and the “% Radical Inhibition” value ([9]; 0.50 % w/w naringenin) was 18.82%. For the same compound, the “% Radical Inhibition” value ([9]; 1.00 % w/w naringenin) was 28.44%, the “% Radical Inhibition” value ([9]; 2.00 % w/w naringenin) was 46.82% and the “Lowest concentration with antioxidant activity” value ([9]; organic solvent systems) was at most 0.2 % w/w. The TNFα concentration ([10]; 0.0001% naringenin, p-value 6.99E−07) was 94.3 pg/mL, the TNFα concentration ([10]; 0.0045% naringenin, p-value 0.002047) was 43.8 pg/mL and the TNFα concentration ([10]; 0.007% naringenin, p-value 0.002961) was 70.3 pg/mL. For the same compound, the TNFα concentration ([10]; 0.01% naringenin, p-value 0.004838) was 104.2 pg/mL, the inhibition at 0.0001 % ([10]; Homo sapiens, NHEK, 0.0001% naringenin, vs stimulated control, p-value 6.99E−07, read-out: TNFα % Reduction vs Treated) was 53.4% and the inhibition at 0.0045 % ([10]; Homo sapiens, NHEK, 0.0045% naringenin, vs stimulated control, p-value 0.002047, read-out: TNFα % Reduction vs Treated) was 78.4%. The inhibition at 0.007 % ([10]; Homo sapiens, NHEK, 0.007% naringenin, vs stimulated control, p-value 0.002961, read-out: TNFα % Reduction vs Treated) was 65.3%, the inhibition at 0.01 % ([10]; Homo sapiens, NHEK, 0.01% naringenin, vs stimulated control, p-value 0.004838, read-out: TNFα % Reduction vs Treated) was 48.6% and the “Reduction of TNFα (in words)” value ([10]; stressed keratinocytes) was “to non-stressed levels”. The Superoxide dismutase [11] was “increase” and the Skin barrier restoration [12] was “restoration of skin barrier”.
